# Laboratory results published in article PMC9182141, “Assay Development and Identification of the First Plasmodium falciparum 7,8-dihydro-6-hydroxymethylpterin-pyrophosphokinase Inhibitors” (Molecules, 2022).
# Where a name gives a salt, the structure may show the parent alone.
# Columns and labels:
# PfHPPK-GFP [1] = target: T1, PfHPPK-GFP (Plasmodium falciparum, UniProt Q25704); test: DSF-GTP (GFP-tagged protein differential scanning fluorimetry) thermal shift; assay type: binding; settings: read-out: ΔTm (°C)
# T1 sequence (Q25704 entry or part of it): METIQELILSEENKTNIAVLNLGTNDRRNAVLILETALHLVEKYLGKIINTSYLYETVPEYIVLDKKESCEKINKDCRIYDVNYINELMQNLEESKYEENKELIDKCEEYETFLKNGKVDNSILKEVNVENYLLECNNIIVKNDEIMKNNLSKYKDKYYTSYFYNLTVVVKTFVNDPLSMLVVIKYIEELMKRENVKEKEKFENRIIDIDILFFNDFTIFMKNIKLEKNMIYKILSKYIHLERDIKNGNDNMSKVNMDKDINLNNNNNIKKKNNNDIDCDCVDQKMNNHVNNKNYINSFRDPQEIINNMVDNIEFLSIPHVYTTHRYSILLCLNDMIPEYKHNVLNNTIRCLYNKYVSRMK
# Procedure: In a preliminary screening experiment, buffer conditions were investigated, searching for conditions that provide the largest thermal shift in the presence of 1 mM ATP. DSF curves were recorded under a total of 17 different conditions, with variations in buffer nature and pH, salts nature and concentration, effect of reducing agent, MgSO4 and glycerol.
# From there, protein binding properties of the hit compounds were assessed experimentally using the developed DSF-GTP assay. A total of 54 compounds were tested, including virtual screening hits and closely related structures. According to our protocol, each compound was mixed with PfHPPK-GFP and submitted to a temperature gradient from 30 °C to 90 °C at 1 °C/min while GFP fluorescence was recorded. The first derivative of the resulting curve was used to determine the melting temperature (Tm). For each set of experiments, a negative control containing DMSO was added, and ΔTm values were calculated for each compound vs. the DMSO control. […] Two compound families were identified as the most promising by our DSF-GTP assay: 5-phenylazo-2,4-diaminopyrimidines (series 1) and phenyltriazolyl-2-amino-4-pyrimidinone (series 2). In series 2, linkers of different lengths that separate the phenyl triazolyl and the pyrimidine moieties were included.
# In a typical DSF-GTP experiment, a master mix containing buffer and PfHPPK-GFP was prepared in a microcentrifuge tube, corresponding to a final protein concentration of 20 μg/mL. Ligands of interest were dispensed in low-profile 96-well plates (Bio-Rad) to 1 mM final concentration, and the master mix was dispensed to a final volume of 50 μL per well. In these conditions, DMSO content was maintained constant at 2%. The microplate was sealed with adhesive film and mixed by shaking for 2 min at 800 rpm at RT. The microplate was then submitted to a DSF run on a CFX96 RT-PCR (Bio-Rad, Hercules, CA, USA). DSF program was designed by starting with a 3 min equilibration phase at 30 °C, followed by a temperature gradient of 1 °C/min until 90 °C, recording fluorescence every 0.5 °C. Fluorescence was recorded using the FAM channel (λex = 450–490 nm, λem = 510–530 nm). Curves were fitted using the Precision Melt Analysis software (Bio-Rad).
# PfHPPK-GFP [2] = target: T1, PfHPPK-GFP; test: KinaseGlo enzyme inhibition assay; assay type: biochemical; settings: 1 mM compound, 10 μM HMDP and 10 μM ATP, 20 min at RT; read-out: Inhib. at 1 mM (%)
# Procedure: For all the compounds displaying a measurable change of Tm, PfHPPK inhibition was recorded at 10 μM HMDP and ATP and 1 mM compound using the KinaseGlo assay. These conditions were chosen to be in the reported Km range for both HMDP and ATP substrates, enabling detection of both competitive and uncompetitive inhibitors. Compounds were incubated with HMDP, ATP and HPPK-GFP for 20 min at RT, followed by addition of the KinaseGlo reagent. After 10 min equilibration, luminescence was recorded, which directly reflects the quantity of ATP left in solution at the end of the reaction. Percentages of inhibition were calculated based on a DMSO positive control and a negative control lacking HPPK-GFP. Compounds structures, ΔTm and levels of inhibition appear in Table 1 and Table 2.
# PfHPPK-GFP inhibition assay was carried using the KinaseGlo Plus kit (Promega, Madison, WI, USA). In a black 96-well plate were dispensed test compounds (1 μL of 50 mM DMSO stock), master mix (100 mM Tris pH 9, 10 mM β-mercapto ethanol, 10 mM MgSO4, 0.01% w/v BSA, 10 μM HMDP and 10 μM ATP). Reaction was initiated by addition of 2 μg of enzyme, reaching a total reaction volume of 50 μL, and reaction was allowed to proceed for 20 min at RT shaking at 300 rpm. Reaction was then quenched by addition of 50 μL KinaseGlo reagent and allowed to equilibrate for 10 min at RT shaking at 300 rpm. Luminescence was recorded on a Biotek Synergy H1 plate reader (Agilent, Santa Clara, CA, USA) using an integration time of 1 s per well. Percentage of inhibition was calculated related to a positive control experiment (no enzyme added) and a negative control experiment (no inhibitor added).
# [3] = Metabolic stability in human liver microsomes; settings: for microsomal CLint: human, liver microsomes
# Procedure: (§1) Intrinsic clearance was also measured in both human and rat liver microsomes in order to assess sensitivity to metabolic degradation.
# (§2) Metabolic stability of test compounds was determined in human and rat liver microsomes. The assay was adapted from a previously published method. Briefly, the test compounds were mixed with liver microsomes, and the metabolic reactions were initiated by the addition of NADPH. Acetonitrile containing an internal standard (labetalol) was added at 0, 5, 10, 30, and 60 min to stop the reactions. Samples were processed, and the remaining compounds in the reactions were detected using a LC-MS/MS. Distribution coefficient, solubility and polar surface area were predicted using Marvin software. Partition coefficient was predicted using ACD/Labs software.
# [4] = Metabolic stability in rat liver microsomes; settings: for microsomal CLint: rat, liver microsomes
# Procedure: as §1, §2
# [5] = system: Plasmodium falciparum TM4/8.2 (drug sensitive); test: Antimalarial activity, [3H]-hypoxanthine incorporation assay, TM4/8.2; assay type: cell-based; settings: P. falciparum TM4/8.2 (drug sensitive), when no IC50 could be determined, highest tested concentration noted
# Procedure: (§3) Finally, the various hit compounds were tested for their antimalarial activity against P. falciparum TM4/8.2 [26] and V1/S [27] strains. Parasite cultures were treated with test compounds at different concentrations, and antimalarial activity was measured using [3H]-hypoxanthine incorporation assay, according to our previously reported protocol. […] IC50 values could not be measured for other compounds. At this stage, there is no explanation for the difference in antiparasitic activity observed between TM4/8.2 and V1/S strains, and more investigations would be needed to conclude on this effect.
# (§4) Compounds were tested for their antimalarial activity against P. falciparum TM4/8.2 [26] and V1/S [27] strains according to our previously reported protocol. In brief, parasite strains were maintained continuously in human erythrocytes in RPMI1640 supplemented with 25 mM HEPES pH 7.4, 0.2% NaHCO3, 40 µg/mL gentamicin and 8% human serum at 37 °C under 3% CO2. For in vitro antimalarial assay, parasite was treated with serial dilutions of the inhibitors, and parasite survival was determined using a modified microdilution radioisotope technique.
# [6] = system: Plasmodium falciparum V1/S (drug resistant); test: Antimalarial activity, [3H]-hypoxanthine incorporation assay, V1/S; assay type: cell-based; settings: P. falciparum V1/S (drug resistant), when no IC50 could be determined, highest tested concentration noted
# Procedure: as §3, §4
# [7] = system: Vero cell line (African green monkey kidney cells); test: Cytotoxicity, sulforhodamine B assay, Vero cells; assay type: cell-based; settings: Chlorocebus sabaeus, 72 h, when no IC50 could be determined, highest tested concentration noted
# [8] = system: KB cell line (human epithelial carcinoma cells); test: Cytotoxicity, sulforhodamine B assay, KB cells; assay type: cell-based; settings: 72 h, when no IC50 could be determined, highest tested concentration noted
# PfHPPK = system: PfHPPK; design: method as in PMID 19631695; settings: substrate of monofunctional PfHPPK; cited from earlier work
Compound,ΔTm at 1000 µM (PfHPPK-GFP [1]) [°C],inhibition at 1000 µM (PfHPPK-GFP [2]) [%],microsomal CLint [3] [µL/min/mg],microsomal CLint [4] [µL/min/mg],IC50 [5] [µM],IC50 ([6]; Plasmodium falciparum) [µM],IC50 [7] [µM],IC50 [8] [µM],IC50 [6] [µM],"CLint (HLM) ([3]; human liver microsomes, NADPH) [µL/min/mg]","CLint (RLM) ([4]; rat liver microsomes, NADPH) [µL/min/mg]",Km (PfHPPK) [µM]
"CCc1nc(N)[nH]c(=O)c1CCc1cn(-c2ccc(C(=O)O)cc2)nn1 [Compound 11, 2-Amino-6-ethyl-5-(2-(1-(4-(carboxy)phenyl)-1H-1,2,3-triazol-4-yl)ethyl)pyrimidin-4(3H)-one hydrochloride]",-1.3 ± 0.3,34.9 ± 5.5,< 3,6.91,> 50,> 50,> 50,> 50,–,–,–,–
"COC(=O)c1cccc(/N=N/c2c(N)nc(N)nc2Cl)c1 [Compound 2, Methyl (E)-3-((2,4-diamino-6-chloropyrimidin-5-yl)diazenyl) benzoate]",-1,11 ± 4.8,–,–,> 100,89.2,> 100,> 100,89.2,–,–,–
"Cc1nc(N)[nH]c(=O)c1Cc1cn(-c2cccc(C(=O)O)c2)nn1 [Compound 7, 2-Amino-6-methyl-5-((1-(3-(carboxy)phenyl)-1H-1,2,3-triazol-4-yl)methyl)pyrimidin-4(3H)-one]",-1,9.2 ± 1.5,–,–,> 25,> 25,> 25,> 25,–,–,–,–
"CCc1nc(N)nc(N)c1OCCCOc1ccccc1CCC(=O)O [Compound P218, reference compound]",–,–,–,–,–,–,–,–,–,<3,<3,–
"CCc1nc(N)[nH]c(=O)c1CCCc1cn(-c2ccc(C(=O)O)cc2)nn1 [Compound 13, 2-Amino-6-ethyl-5-(3-(1-(4-(carboxy)phenyl)-1H-1,2,3-triazol-4-yl)propyl)pyrimidin-4(3H)-one hydrochloride]",-1.5,24.9 ± 3.1,< 3,7.38,> 50,> 50,> 50,> 50,–,–,–,–
"Nc1nc(O)c2c(n1)NCC(CO)=N2 [HMDP, 2-amino-4-hydroxy-6-hydroxymethyl-7,8-dihydropteridine]",–,–,–,–,–,–,–,–,–,–,–,2.1
"CCc1nc(N)[nH]c(=O)c1Cc1cn(-c2cccc([N+](=O)[O-])c2)nn1 [Compound 10, 2-Amino-6-ethyl-5-((1-(3-(nitro)phenyl)-1H-1,2,3-triazol-4-yl)methyl)pyrimidin-4(3H)-one hydrochloride]",-1.2 ± 0.3,12.1 ± 4,–,–,> 50,> 50,> 50,> 50,–,–,–,–
"CCc1nc(N)[nH]c(=O)c1Cc1cn(-c2ccc(C(=O)O)cc2)nn1 [Compound 8, 2-Amino-6-ethyl-5-((1-(4-(carboxy)phenyl)-1H-1,2,3-triazol-4-yl)methyl)pyrimidin-4(3H)-one]",-1.2 ± 0.3,6.9 ± 2,–,–,> 50,> 50,> 50,> 50,–,–,–,–
"COc1nc(N)nc(N)c1/N=N/c1cccc([N+](=O)[O-])c1 [Compound 1, (E)-6-Methoxy-5-((3-nitrophenyl)diazenyl)pyrimidine-2,4-diamine]",-1,2.5 ± 1.4,–,–,> 100,21,> 100,> 100,21,–,–,–
"Nc1nc(N)c(/N=N/c2ccccc2)c(N)n1 [Compound 4, (E)-5-(Phenyldiazenyl)pyrimidine-2,4,6-triamine]",-1,46 ± 7.5,363,82.4,75.4,> 50,29.6,62.4,–,–,–,–
"COc1nc(N)nc(N)c1/N=N/c1cccc(C(=O)O)c1 [Compound 3, (E)-3-((2,4-Diamino-6-methoxypyrimidin-5-yl)diazenyl) benzoic acid]",-1,23.3 ± 4.8,< 3,< 3,> 50,> 50,> 100,> 100,–,–,–,–
"Nc1nc(N)c(/N=N/c2cccc(C(=O)O)c2)c(N)n1 [Compound 5, (E)-3-((2,4,6-Triaminopyrimidin-5-yl)diazenyl)benzoic acid]",-1,14.6 ± 3.2,–,–,> 10,> 10,–,–,–,–,–,–
"Cc1nc(N)[nH]c(=O)c1Cc1cn(-c2ccc(C(=O)O)cc2)nn1 [Compound 6, 2-Amino-6-methyl-5-((1-(4-(carboxy)phenyl)-1H-1,2,3-triazol-4-yl)methyl)pyrimidin-4(3H)-one]",-1,1.8 ± 0.6,–,–,> 25,> 25,> 25,> 25,–,–,–,–
"CCc1nc(N)[nH]c(=O)c1CCc1cn(-c2cccc(C(=O)O)c2)nn1 [Compound 12, 2-Amino-6-ethyl-5-(2-(1-(3-(carboxy)phenyl)-1H-1,2,3-triazol-4-yl)ethyl)pyrimidin-4(3H)-one hydrochloride]",-1.3 ± 0.3,24.5 ± 2.3,–,–,> 50,> 50,> 50,> 50,–,–,–,–
"CCc1nc(N)[nH]c(=O)c1Cc1cn(-c2cccc(C(=O)O)c2)nn1 [Compound 9, 2-Amino-6-ethyl-5-((1-(3-(carboxy)phenyl)-1H-1,2,3-triazol-4-yl)methyl)pyrimidin-4(3H)-one]",-1,16.4 ± 2.9,–,–,> 50,> 50,> 50,> 50,–,–,–,–
